Measurements reported in paper PMC11211886 (Frontiers in Pharmacology, 2024).
Several values for one entry are separate records, joined by “and”; a condition that tells them apart may be missing. Identical values can stand only once. Like-named read-outs stand apart in the source and are kept apart here.

What was measured:
[1] = Single-dose PK and food effect in beagle dogs (IV/PO); parameters: species or system beagle dog; conditions: in vivo; for AUC(0-inf): AUC0-inf
Procedure: Twelve beagle dogs (6-10 kg, male: female = 1:1) purchased from Beijing Marshall Biotechnology Co. Ltd. (Beijing, China) were enrolled in a three-period self-control cross-over study with a washout time of 1 week. […] In Period 1 and Period 2, dogs were fasted overnight until dosing. […] Approximately 1.0 mL of blood was collected per time point from the jugular vein using a 2 mL injector and transferred to a 3 mL tube that contained sodium heparin. The collected blood samples were centrifuged at 3,500 g for 5 min at 4°C to collect plasma within 30 min after sample collection. […] Animals were fasted overnight and for approximately 4 h post-dose. […] At each time point, approximately 1.0 mL of blood was collected from the femoral vein and transferred into an individual tube that contained sodium heparin. The blood samples were centrifuged at 3,500 g for 5 min at 4°C to harvest plasma.

[2] = Plasma protein binding (RED), human plasma; assay type: in vitro ADME; conditions: mouse, rat, dog, monkey, human, plasma, pH 7.4; all species, all cases (data not shown); read-out: post-dialysis recovery
Procedure: (§1) The plate containing plasma and buffer was equilibrated for 6 h in a 37°C water shaking bath. After incubation, aliquots of buffer and plasma (20 µL) on both sides were collected and precipitated using organic solvents. […] The post-dialysis recovery of amdizalisib was also measured.

[3] = tested on: plasma proteins; test: Plasma protein binding (RED), human plasma; assay type: in vitro ADME
Procedure: as §1

[4] = molecular target: T1, CYP2B6 (Homo sapiens, UniProt P20813); test: Reversible CYP inhibition in HLM, CYP2B6 (bupropion); assay type: in vitro ADME; conditions: for enzyme activity remaining: CYP2B6, HLM
T1 construct: tissue Life Technologies (Durham, NC, USA); host or cells: human liver microsomes
T1 sequence (P20813 1-491): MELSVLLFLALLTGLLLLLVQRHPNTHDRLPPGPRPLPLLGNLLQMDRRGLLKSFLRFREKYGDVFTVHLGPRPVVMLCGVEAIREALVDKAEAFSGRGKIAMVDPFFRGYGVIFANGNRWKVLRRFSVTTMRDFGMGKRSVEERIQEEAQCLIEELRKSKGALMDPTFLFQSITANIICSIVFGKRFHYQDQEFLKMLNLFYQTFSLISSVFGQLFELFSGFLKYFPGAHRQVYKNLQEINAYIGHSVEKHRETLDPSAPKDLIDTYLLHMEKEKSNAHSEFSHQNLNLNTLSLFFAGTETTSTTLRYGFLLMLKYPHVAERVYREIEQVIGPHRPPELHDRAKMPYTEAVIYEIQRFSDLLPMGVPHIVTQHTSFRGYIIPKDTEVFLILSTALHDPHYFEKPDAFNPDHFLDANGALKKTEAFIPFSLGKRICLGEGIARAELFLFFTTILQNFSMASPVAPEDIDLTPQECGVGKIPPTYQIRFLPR
Procedure: The markers used to determine the activities of CYP isoforms were phenacetin O-deethylation for CYP1A2 (probe substrate: 50 µM phenacetin), bupropion hydroxylation for CYP2B6 (probe substrate: 70 µM bupropion), paclitaxel 6α-hydroxylation for CYP2C8 (probe substrate: 10 µM paclitaxel), diclofenac 4′-hydroxylation for CYP2C9 (probe substrate: 5 µM diclofenac), S-(+)-mephenytoin 4′-hydroxylation for CYP2C19 (probe substrate: 20 µM S-(+)-mephenytoin), dextromethorphan O-demethylation for CYP2D6 (probe substrate: 6 µM dextromethorphan), chlorzoxazone 6′-hydroxylation for CYP2E1 (probe substrate: 70 µM chlorzoxazone), and testosterone 6β-hydroxylation and midazolam 1′-hydroxylation for CYP3A4/5 (probe substrate: 45 µM testosterone and 5 µM midazolam). […] Alpha-naphthoflavone (0.04 µM), 2-phenyl-2-(1-piperidinyl)propane (5 µM), quercetin (1 µM), sulfaphenazole (0.5 µM), ticlopidine (4 µM), quinidine (0.2 µM), diethyldithiocarbamate (20 µM), and ketoconazole (0.05 µM) were used as positive inhibitors of CYP1A2, 2B6, 2C8, 2C9, 2C19, 2D6, 2E1, and 3A4, respectively. The vehicle control was prepared in the same composition as inhibitor solutions but free of inhibitors. The concentrations of probe substrates were close to Km values that were determined in-house and within the range recommended by the FDA ([Huang et al., 2007]). Reaction mixtures were incubated at 37°C for 5, 20, or 30 min, depending on the probe substrates of CYP isoforms. The reactions were terminated by adding cold acetonitrile containing IS, and the terminated incubation mixtures were centrifuged at 3,000 g for 10 min before LC-MS/MS analysis.

[5] = molecular target: T2, CYP2C9 (Homo sapiens, UniProt P11712); test: Time-dependent CYP inhibition in HLM, CYP2C9; assay type: in vitro ADME; conditions: 10 μM, 30 min pre-incubation with NADPH
T2 construct: tissue Life Technologies (Durham, NC, USA); host or cells: human liver microsomes
T2 sequence (P11712 whole entry): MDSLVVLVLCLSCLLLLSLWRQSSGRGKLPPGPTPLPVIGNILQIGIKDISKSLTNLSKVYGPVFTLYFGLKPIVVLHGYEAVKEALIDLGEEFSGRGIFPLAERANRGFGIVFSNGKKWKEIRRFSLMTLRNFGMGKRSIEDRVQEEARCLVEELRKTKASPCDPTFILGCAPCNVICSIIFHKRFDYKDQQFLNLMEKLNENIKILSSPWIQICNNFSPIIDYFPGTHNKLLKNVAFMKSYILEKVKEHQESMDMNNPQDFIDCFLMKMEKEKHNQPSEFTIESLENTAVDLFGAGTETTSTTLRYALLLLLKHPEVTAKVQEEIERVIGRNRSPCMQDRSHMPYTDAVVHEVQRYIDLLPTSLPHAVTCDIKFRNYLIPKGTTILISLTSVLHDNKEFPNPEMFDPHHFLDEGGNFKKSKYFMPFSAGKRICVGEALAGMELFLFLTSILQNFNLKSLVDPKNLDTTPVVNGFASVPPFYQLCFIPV
Procedure: The procedure of time-dependent CYP inhibition was similar to that used for CYP reversible inhibition, as mentioned above, except that a pre-incubation step was added. […] Another appropriate volume of the NADPH-regenerating system and probe substrate were added to initiate the CYP isoform enzyme activity test step. For this step, the incubation period was 10 min, except for CYP2B6, CYP2C8, and CYP3A4/5 (probe substrate: midazolam), which was 3 min to make sure the reaction was under initial linear rates. After incubation for the designated time periods at 37°C, the ice-cold acetonitrile containing IS was added to quench the reaction. […] (Ainactivator/[…] represents the enzyme activity remaining due to the inhibition by the diluted inactivator in the enzyme activity test step, and (Ainactivator/[…] represents the remaining enzyme activity due to pre-incubation loss plus inhibition by the diluted inactivator in the enzyme activity test step.

[6] = both sexes, beagle, dog, iv, 0.5 mg/kg
[7] = both sexes, beagle, dog, po, 0.5 mg/kg
[8] = both sexes, beagle, dog, po, 3.5 mg/kg
[9] = both sexes, beagle, dog, po, 25 mg/kg

**Q.** Which AUC(0-t) [1, 6] does the source give for C[C@H](Nc1ncnc(N)c1C#N)c1cc2ncc(Cl)n2nc1-c1ccccc1 [Amdizalisib] here?
**A.** Its AUC(0-t) is 750 ± 272 ng·h/mL.

**Q.** What about the Vd [1, 6] of the same molecule?
**A.** Its Vd is 2.4 ± 0.354 L/kg.

**Q.** What about the AUC(0-inf) [1, 6] of the same molecule?
**A.** The AUC(0-inf) was 772 ± 272 ng·h/mL.

**Q.** What about the MRT ([1]; both sexes, beagle, dog, iv, 0.5 mg/kg, Beagle dog, fasted, IV 0.5 mg/kg, read-out: MRT) of the same molecule?
**A.** Its MRT is 3.65 ± 1.29 h.

**Q.** And the half-life ([1]; both sexes, beagle, dog, iv, 0.5 mg/kg, Beagle dog, fasted, IV 0.5 mg/kg, read-out: t1/2 (converted))?
**A.** Its half-life is 3.02 ± 1.27 h.

**Q.** What about the MRT [1, 7] of the same molecule?
**A.** Its MRT is 9.66 ± 6.73 h.

**Q.** What about the Tmax [1, 7] of the same molecule?
**A.** Its Tmax is 1.92 ± 0.665 h.

**Q.** And the half-life [1, 7]?
**A.** Its half-life is 7.22 ± 6.55 h.

**Q.** What about the AUC(0-inf) [1, 7] of the same molecule?
**A.** The AUC(0-inf) was 359 ± 259 ng·h/mL.

**Q.** And the Cmax ([1]; both sexes, beagle, dog, po, 0.5 mg/kg, Cmax)?
**A.** Its Cmax is 42.4 ± 21.8 ng/mL.

**Q.** What about the AUC(0-t) [1, 8] of the same molecule?
**A.** The AUC(0-t) was 5540 ng·h/mL.

**Q.** And the MRT [1, 8]?
**A.** Its MRT is 13.8 ± 4.85 h.

**Q.** And the Tmax [1, 8]?
**A.** Its Tmax is 6.25 ± 9.11 h.

**Q.** And the AUC(0-inf) [1, 8]?
**A.** Its AUC(0-inf) is 5660 ng·h/mL.

**Q.** What about the half-life ([1]; both sexes, beagle, dog, po, 3.5 mg/kg, Beagle dog, fasted, PO 3.5 mg/kg, read-out: t1/2 (converted)) of the same molecule?
**A.** Its half-life is 6.08 ± 1.48 h.

**Q.** What about the AUC(0-t) [1, 9] of the same molecule?
**A.** Its AUC(0-t) is 66500 ng·h/mL.

**Q.** And the AUC(0-inf) [1, 9]?
**A.** The AUC(0-inf) was 72800 ng·h/mL.

**Q.** And the MRT ([1]; both sexes, beagle, dog, po, 25 mg/kg, Beagle dog, fasted, PO 25 mg/kg, read-out: MRT)?
**A.** Its MRT is 31.8 ± 10.2 h.

**Q.** What about the Tmax ([1]; both sexes, beagle, dog, po, 25 mg/kg, Beagle dog, fasted, PO 25 mg/kg, read-out: Tmax) of the same molecule?
**A.** The Tmax was 15 ± 10.4 h.

**Q.** What about the half-life ([1]; both sexes, beagle, dog, po, 25 mg/kg, Beagle dog, fasted, PO 25 mg/kg, read-out: t1/2 (converted)) of the same molecule?
**A.** The half-life was 13.9 ± 5.07 h.

**Q.** And the Tmax ([1]; both sexes, beagle, dog, po, 25 mg/kg, Beagle dog, fed, PO 25 mg/kg, read-out: Tmax)?
**A.** The Tmax was 7 ± 8.34 h.

**Q.** What about the half-life ([1]; both sexes, beagle, dog, po, 25 mg/kg, Beagle dog, fed, PO 25 mg/kg, read-out: t1/2 (converted)) of the same molecule?
**A.** The half-life was 17.4 ± 2.49 h.

**Q.** And the clearance ([1]; both sexes, Beagle dog, fasted, IV 0.5 mg/kg)?
**A.** Its clearance is 11.8 ± 3.61 mL/min/kg.

**Q.** And the Cmax ([1]; both sexes, Beagle dog, fasted, PO 3.5 mg/kg, read-out: Cmax)?
**A.** Its Cmax is 347 ± 105 ng/mL.

**Q.** And the “CL as % of the hepatic blood flow” value ([1]; both, beagle, dog, iv)?
**A.** Its value is 38.1%.

**Q.** And the Cmax ([1]; both, beagle, dog, po, 25 mg/kg)?
**A.** Its Cmax is 2,159 ± 1,070 ng/mL.

**Q.** What about the recovery at 6 h [2] of the same molecule?
**A.** Its recovery at 6 h is greater than 90%.

**Q.** What about the “Binding fraction to plasma proteins, Human” value (“Binding fraction” for short) ([3]; 0.1 µM) of the same molecule?
**A.** Its value is 94.0 ± 0.86%.

**Q.** And the “Binding fraction” value ([3]; 1 µM)?
**A.** Its value is 92.8 ± 0.54%.

**Q.** And the “Binding fraction” value ([3]; 20 µM)?
**A.** Its value is 92.4 ± 0.15%.

**Q.** What about the “stability in plasma post-incubation” value ([3]; all species, 37°C 6 h (data not shown)) of the same molecule?
**A.** The value was greater than 90%.

**Q.** What about the fraction unbound at 6 h ([3]; plasma, pH 7.4, all species (mouse, rat, dog, monkey, human), 0.1–20 μM) of the same molecule?
**A.** The fraction unbound at 6 h was roughly 0.1.

**Q.** And the enzyme activity remaining ([4]; 0.4 μM)?
**A.** Its enzyme activity remaining is 100% and 98.9%.

**Q.** And the enzyme activity remaining ([4]; 2 μM)?
**A.** Its enzyme activity remaining is 96.2% and 92.1%.

**Q.** And the enzyme activity remaining ([4]; 5 μM)?
**A.** Its enzyme activity remaining is 97.4% and 95.1%.

**Q.** And the enzyme activity remaining ([4]; 10 μM)?
**A.** Its enzyme activity remaining is 97.7% and 96.6%.

**Q.** And the enzyme activity remaining ([4]; 25 μM)?
**A.** The enzyme activity remaining was 87.6%.

**Q.** What about the enzyme activity remaining ([4]; 50 μM) of the same molecule?
**A.** Its enzyme activity remaining is 79.7% and 77.1%.

**Q.** What about the IC50 ([4]; HLM, reversible, without pre-incubation) of the same molecule?
**A.** The IC50 was greater than 50 µM.

**Q.** And the “activity loss of CYP2C9” value [5]?
**A.** The value was 14.6%.
